Assay results taken from PubChem BioAssay (NCI).
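Grown in 96-well plates, cells were treated for 48 hours with each compound at five concentrations. Insufficient inhibition: endpoint recorded as highest concentration tested. GI50 marks 50% less growth. Definition used: TGI = concentration required for complete inhibition of growth.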

Experiments:
Assay in all cases: growth of human tumour cells (NCI), 48 h
[1] = test system: KM12 colon
[2] = test system: SF-539 CNS
[3] = test system: HCT-116 colon
[4] = test system: OVCAR-3 ovarian
[5] = test system: A549 NSCLC
[6] = test system: TK-10 renal
[7] = test system: SK-MEL-28 melanoma
[8] = test system: SNB-19 CNS
[9] = test system: UACC-257 melanoma
[10] = test system: BT-549 breast

COc1cc(C)c(CC/C(C)=C/Cc2cc(O)ccc2O)c(C)c1C
TGI [1]: > 25 µM
TGI [2]: > 25 µM
TGI [3]: > 25 µM
TGI [4]: > 25 µM
TGI [5]: > 25 µM
TGI [6]: > 25 µM
TGI [7]: > 25 µM
TGI [8]: > 25 µM

CCOC(=O)c1nc(C)oc1C(F)(F)F
TGI [1]: > 100 µM
TGI [2]: > 100 µM
TGI [3]: > 100 µM
TGI [4]: > 100 µM
TGI [5]: > 100 µM
TGI [6]: > 100 µM
TGI [9]: > 100 µM
TGI [7]: > 100 µM
TGI [8]: > 100 µM

O=C1[C@@H]2C(c3c(Cl)cccc3Cl)=NO[C@@H]2C(=O)N1c1ccc(Cc2ccc(N3C(=O)[C@H]4C(c5c(Cl)cccc5Cl)=NO[C@H]4C3=O)cc2)cc1
TGI [1]: > 100 µM
TGI [2]: > 100 µM
TGI [4]: > 100 µM
TGI [5]: > 100 µM
TGI [6]: > 100 µM
TGI [9]: > 100 µM
TGI [7]: > 100 µM

COc1ccc(CNc2cnc3ccc(N)cc3n2)cc1
TGI [1]: > 100 µM
TGI [2]: > 100 µM
TGI [3]: 11.7 µM
TGI [4]: > 100 µM
TGI [5]: > 100 µM
TGI [6]: > 100 µM
TGI [9]: > 100 µM
TGI [7]: > 100 µM
TGI [8]: > 100 µM

CCc1cccc(C)c1NC(=O)CCc1nc(=S)[nH][nH]1
TGI [1]: > 100 µM
TGI [2]: > 100 µM
TGI [3]: > 100 µM
TGI [4]: > 100 µM
TGI [5]: > 100 µM
TGI [6]: > 100 µM
TGI [9]: > 100 µM
TGI [7]: > 100 µM
TGI [8]: > 100 µM

O=C1CC(c2ccccc2)Oc2ccccc21 (stereo not given)
TGI [1]: > 100 µM
TGI [2]: 55 µM
TGI [10]: 42.1 µM
TGI [3]: > 100 µM
TGI [6]: > 100 µM
TGI [9]: > 100 µM
TGI [7]: > 100 µM
TGI [8]: 83.4 µM

COc1cc([C@@H]2c3cc4c(cc3[C@@H](NC(=O)c3ccc(C#N)cc3)C3COC(=O)[C@@H]32)OCO4)cc(OC)c1O (stereo not given in full)
TGI [1]: 3.2 µM
TGI [2]: 1.66 µM
TGI [3]: 3.29 µM
TGI [4]: 4.66 µM
TGI [5]: 1.64 µM
TGI [6]: 4.86 µM
TGI [9]: 20.1 µM
TGI [7]: 16.8 µM
TGI [8]: 4.65 µM

O=C(Nc1cccc(-n2cc(-c3ccncc3)c(-c3cc(O)cc(Cl)c3)n2)c1)c1ccc(N2CCOCC2)c(C(F)(F)F)c1
GI50 [1]: 1.21 µM
TGI [1]: > 100 µM
GI50 [2]: 1.44 µM
TGI [2]: 4.47 µM
GI50 [10]: 4.21 µM
TGI [10]: > 100 µM
GI50 [3]: 1.96 µM
TGI [3]: > 100 µM
GI50 [4]: 7.2 µM
TGI [4]: > 100 µM
GI50 [5]: 1.64 µM
TGI [5]: 18 µM
GI50 [9]: 2.36 µM
TGI [9]: 8.48 µM
GI50 [7]: 0.759 µM
TGI [7]: 3.27 µM
GI50 [8]: 3.33 µM
TGI [8]: 33.6 µM

O=C(NCCNCCO)c1ccc2c(c1)oc1cc3ccccc3c(=O)n12
GI50 [1]: 9.32 µM
TGI [1]: > 50 µM
GI50 [2]: 16.2 µM
TGI [2]: 33.2 µM
GI50 [10]: 18.8 µM
TGI [10]: > 50 µM
GI50 [3]: 22.8 µM
TGI [3]: > 50 µM
GI50 [5]: 16.2 µM
TGI [5]: > 50 µM
GI50 [6]: 1.48 µM
TGI [6]: 19.6 µM
GI50 [9]: 19.6 µM
TGI [9]: > 50 µM
GI50 [7]: > 50 µM
TGI [7]: > 50 µM
GI50 [8]: > 50 µM
TGI [8]: > 50 µM

COC(=O)C1C(=O)O[C@@H](c2ccc3c(c2)OCO3)C1C(=O)OC (mixture of isomers)
TGI [1]: > 100 µM
TGI [2]: > 100 µM
TGI [3]: > 100 µM
TGI [4]: > 100 µM
TGI [5]: > 100 µM
TGI [6]: > 100 µM
TGI [9]: > 100 µM
TGI [7]: > 100 µM
TGI [8]: > 100 µM

O=[N+]([O-])c1cccc(C2=NN(c3ccccc3)C3c4cc(Br)ccc4OCC23)c1 (stereo not given)
TGI [1]: > 100 µM
TGI [2]: > 100 µM
TGI [3]: > 100 µM
TGI [4]: > 100 µM
TGI [5]: > 100 µM
TGI [6]: > 100 µM
TGI [9]: > 100 µM
TGI [7]: > 100 µM
TGI [8]: > 100 µM

CCOC(=O)C1C(c2ccc(Cl)cc2Cl)NC(c2ccc(C)cc2)C(C(=O)OC)S1(=O)=O (stereo not given)
TGI [1]: > 100 µM
TGI [2]: > 100 µM
TGI [4]: > 100 µM
TGI [5]: > 100 µM
TGI [6]: > 100 µM
TGI [9]: > 100 µM
TGI [7]: > 100 µM
TGI [8]: > 100 µM

Nc1ncnc2c1N=C(c1ccc3c(c1)OCO3)CC(c1ccc(Cl)cc1)N2 (stereo not given)
GI50 [1]: 2.03 µM
TGI [1]: 30.7 µM
GI50 [2]: 26.2 µM
TGI [2]: > 100 µM
GI50 [3]: 10.7 µM
TGI [3]: 22.5 µM
GI50 [4]: 3.71 µM
TGI [4]: 18.6 µM
GI50 [5]: 11.6 µM
TGI [5]: 30.1 µM
GI50 [6]: 8.22 µM
TGI [6]: 38.9 µM
GI50 [9]: > 100 µM
TGI [9]: > 100 µM
GI50 [7]: 30.4 µM
TGI [7]: > 100 µM
GI50 [8]: > 100 µM
TGI [8]: > 100 µM

CCN(CC)Cc1cc(Nc2nc(NC3CCC(N(C)C)CC3)c3ccccc3n2)ccc1OC (stereo not given)
GI50 [1]: 3.35 µM
TGI [1]: 13.2 µM
GI50 [2]: 3.3 µM
TGI [2]: 13.3 µM
GI50 [3]: 3.37 µM
TGI [3]: 12.8 µM
GI50 [4]: 11.6 µM
TGI [4]: 24.7 µM
GI50 [5]: 3.59 µM
TGI [5]: 13.7 µM
GI50 [6]: 12 µM
TGI [6]: 25.4 µM
GI50 [9]: 1.82 µM
TGI [9]: 3.84 µM
GI50 [7]: 2.41 µM
TGI [7]: 5.17 µM
GI50 [8]: 8.6 µM
TGI [8]: 22.6 µM

COC(=O)/C=C(/C(=O)OC)C1(C)c2cc(C(=O)OC)c(C(=O)OC)c(N)c2C(=N)N1c1ccccc1 (stereo not given)
TGI [1]: 32.9 µM
TGI [2]: 48.9 µM
TGI [3]: 29.3 µM
TGI [4]: 38.3 µM
TGI [5]: > 100 µM
TGI [6]: > 100 µM
TGI [7]: 36.5 µM
TGI [8]: > 100 µM

C[C@]12Cc3cn[nH]c3C(=O)C1CC[C@@H]1C2CC[C@@]2(C)C1CC[C@@H]2O (stereo not given in full)
TGI [1]: > 100 µM
TGI [2]: > 100 µM
TGI [3]: > 100 µM
TGI [4]: > 100 µM
TGI [5]: > 100 µM
TGI [6]: > 100 µM
TGI [9]: > 100 µM
TGI [7]: > 100 µM
TGI [8]: > 100 µM

COc1ccc(OC)c(NCC(=O)n2nc(/C=C\c3ccc(O)c(OC)c3)cc2/C=C\c2ccc(O)c(OC)c2)c1
GI50 [1]: 1.81 µM
TGI [1]: 4.92 µM
GI50 [2]: 1.74 µM
TGI [2]: 6.15 µM
GI50 [10]: 1.44 µM
TGI [10]: 5.7 µM
GI50 [4]: 2.58 µM
TGI [4]: 13.9 µM
GI50 [5]: 3.4 µM
TGI [5]: 33.1 µM
GI50 [6]: 4.66 µM
TGI [6]: 30.1 µM
GI50 [9]: 3.28 µM
TGI [9]: 14.8 µM
GI50 [7]: 2.66 µM
TGI [7]: 12.3 µM
GI50 [8]: 2.62 µM
TGI [8]: 10.3 µM

O=[N+]([O-])c1ccc(Cl)c2c([N+](=O)[O-])cccc12
TGI [1]: > 10 µM
TGI [2]: 5.91 µM
TGI [3]: 5.32 µM
TGI [4]: > 10 µM
TGI [5]: > 10 µM
TGI [6]: > 10 µM
TGI [7]: > 10 µM
TGI [8]: > 10 µM
